According to patent US7858635B2 (priority 2005, dated 2010):
Like-named read-outs stand apart in the source and are kept apart here.

Tests used:
M1 muscarinic receptor = target: T1, M1 muscarinic receptor (Homo sapiens, UniProt P11229); assay: Functional mobilization of intracellular calcium (FLIPR, Fluo-3), M1-CHO cells; assay type: cell-based; conditions: for Emax: 100% efficacy is the maximum response obtained with the Carbachol control, read-out: M1 Efficacy
T1 construct: expressed in transfected cells; host or cells: CHO cells (M1-CHO, under zeocin and G418 selection)
T1 sequence (P11229 1-460): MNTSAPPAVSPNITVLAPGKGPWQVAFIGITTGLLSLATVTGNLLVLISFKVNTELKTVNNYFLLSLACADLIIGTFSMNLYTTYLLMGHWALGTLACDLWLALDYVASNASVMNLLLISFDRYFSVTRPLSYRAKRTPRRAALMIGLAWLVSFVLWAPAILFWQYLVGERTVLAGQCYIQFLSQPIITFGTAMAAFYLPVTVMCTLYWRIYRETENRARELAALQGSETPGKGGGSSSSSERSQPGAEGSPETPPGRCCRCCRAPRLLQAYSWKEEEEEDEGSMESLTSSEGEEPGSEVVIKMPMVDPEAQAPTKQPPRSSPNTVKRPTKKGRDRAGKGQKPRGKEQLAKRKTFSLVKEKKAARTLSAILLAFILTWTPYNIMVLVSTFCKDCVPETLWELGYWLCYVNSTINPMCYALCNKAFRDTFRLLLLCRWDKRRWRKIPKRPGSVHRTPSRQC
How it was run: (§1)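 CHO lines stably carrying the muscarinic subtype, dye-loaded with Fluo-3 at 37° C for 60-90 min, receive test compound in 0.5% DMSO. Agonist effects are read directly; antagonist effects against carbachol at EC80 after 15 min pre-incubation.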

M4 muscarinic receptor = target: T2, M4 muscarinic receptor (Homo sapiens, UniProt P08173); assay: Functional mobilization of intracellular calcium (FLIPR, Fluo-3), M4-CHO cells; assay type: cell-based; conditions: for Emax: 100% efficacy is the maximum response obtained with the Carbachol control, read-out: M4 Efficacy
T2 construct: expressed in transfected cells; host or cells: CHO cells (M4-CHO, under puromycin, zeocin and blasticidin selection)
T2 sequence (P08173 1-479): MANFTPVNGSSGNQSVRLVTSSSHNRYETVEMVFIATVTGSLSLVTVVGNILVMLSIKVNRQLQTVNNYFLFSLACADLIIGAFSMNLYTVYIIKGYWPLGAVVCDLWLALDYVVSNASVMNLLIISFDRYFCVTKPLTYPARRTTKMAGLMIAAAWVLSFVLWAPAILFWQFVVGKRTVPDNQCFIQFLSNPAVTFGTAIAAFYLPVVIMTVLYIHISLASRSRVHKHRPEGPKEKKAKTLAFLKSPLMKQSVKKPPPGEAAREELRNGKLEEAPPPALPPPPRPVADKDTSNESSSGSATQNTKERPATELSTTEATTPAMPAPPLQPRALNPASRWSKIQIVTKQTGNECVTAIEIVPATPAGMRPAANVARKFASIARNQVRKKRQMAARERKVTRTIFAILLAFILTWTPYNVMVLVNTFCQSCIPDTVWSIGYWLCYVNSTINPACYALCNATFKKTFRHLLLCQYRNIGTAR
How it was run: as §1

[1] = compound nos. 1-454, M1-CHO cells, calcium mobilization
[2] = compound nos. 1-454, M4-CHO cells, calcium mobilization

| SMILES | Emax (M1 muscarinic receptor; compound nos. 1-454) | M1 Activity (M1 muscarinic receptor; [1]) | Emax (M4 muscarinic receptor; compound nos. 1-454) | M4 Activity (M4 muscarinic receptor; [2]) | M1 Activity (M1 muscarinic receptor; compound nos. 1-454) | M4 Activity (M4 muscarinic receptor; compound nos. 1-454) | Emax (M1 muscarinic receptor; compound nos. 455-509) | M1 Activity (M1 muscarinic receptor; compounds 455-509) | Emax (M4 muscarinic receptor; compound nos. 455-509) | M4 Activity (M4 muscarinic receptor; compounds 455-509) |
| --- | --- | --- | --- | --- | --- | --- | --- | --- | --- | --- |
| Clc1ccc2c(c1)C1(CCO2)CCN(CC2CCOCC2)CC1 [compound 288] | < 65% | + (activity was measured to be greater than or equal to 3.0 μM) | < 55% | + (activity was measured to be greater than or equal to 4.0 μM) | – | – | – | – | – | – |
| CCCOC(=O)N1C2CCC1CC(N1CCC3(CC1)CN(C(=O)OC1CCC1)c1ccc(F)cc13)C2 (stereo not shown) [compound 329] | 65 to 85% | +++ (activity was measured to be less than or equal to 0.7 μM) | < 55% | + (activity was measured to be greater than or equal to 4.0 μM) | – | – | – | – | – | – |
| CCCC1CCC(N2CCC3(CC2)CNc2ccc(F)cc23)CC1 (stereo not shown) [compound 328] | < 65% | ++ (activity was measured to be between 0.7 μM and 3.0 μM) | 55 to 70% | + (activity was measured to be greater than or equal to 4.0 μM) | – | – | – | – | – | – |
| COCCOC(=O)N1C2CCC1CC(N1CCC3(CC1)CN(C(=O)C1CC1)c1ccc(F)cc13)C2 (stereo not shown) [compound 311] | 65 to 85% | +++ (activity was measured to be less than or equal to 0.7 μM) | 55 to 70% | + (activity was measured to be greater than or equal to 4.0 μM) | – | – | – | – | – | – |
| CCNC(=O)N1C2CCC1CC(N1CCC3(CC1)COc1ccc(F)cc13)C2 (stereo not shown) [compound 219] | 65 to 85% | + (activity was measured to be greater than or equal to 3.0 μM) | < 55% | + (activity was measured to be greater than or equal to 4.0 μM) | – | – | – | – | – | – |
| CCON=C1CCC(N2CCC3(CC2)CN(C(C)=O)c2ccc(F)cc23)CC1 (stereo not shown) [compound 86, 1-(1′-(4-(ethoxyimino)cyclohexyl)-5-fluorospiro[indoline-3,4′-piperidine]-1-yl)ethanone] | 65 to 85% | +++ (activity was measured to be less than or equal to 0.7 μM) | < 55% | + (activity was measured to be greater than or equal to 4.0 μM) | – | – | – | – | – | – |
| CC(C)OC(=O)N1C2CCC1CC(N1CCC3(CC1)C(=O)Nc1ccccc13)C2 (stereo not shown) [compound 139] | > 85% | +++ (activity was measured to be less than or equal to 0.7 μM) | > 70% | +++ (activity was measured to be less than or equal to 0.1 μM) | – | – | – | – | – | – |
| CN(C)C(=O)N1CC2(CCN(C3CC4CCC(C3)N4C(=O)O[C@@H]3CCOC3)CC2)c2cc(F)ccc21 (stereo partly shown) [compound 188] | < 65% | + (activity was measured to be greater than or equal to 3.0 μM) | 55 to 70% | + (activity was measured to be greater than or equal to 4.0 μM) | – | – | – | – | – | – |
| Cc1ccc2c(c1)C1(CCN(CC3CC4C=CC3C4)CC1)CN2 (stereo not shown) [compound 3] | 65 to 85% | +++ (activity was measured to be less than or equal to 0.7 μM) | 55 to 70% | ++ (activity was measured to be between 0.1 μM and 4.0 μM) | – | – | – | – | – | – |
| C#CCOC(=O)N1CCC(CN2CCC3(CC2)CN(C(C)=O)c2ccc(F)cc23)CC1 [compound 316] | < 65% | + (activity was measured to be greater than or equal to 3.0 μM) | < 55% | + (activity was measured to be greater than or equal to 4.0 μM) | – | – | – | – | – | – |
| c1ccc2c(c1)NCC21CCN(C2CC3CCC(C3)C2)CC1 (stereo not shown) [compound 420] | < 65% | – | < 55% | – | ++ (activity was measured to be between 0.7 μM and 3.0 μM) | + (activity was measured to be greater than or equal to 4.0 μM) | – | – | – | – |
| CC(=O)N1CC2(CCN(C3CCC[C@@H](C)C3)CC2)c2cc(F)ccc21 (stereo partly shown) [compound 240] | 65 to 85% | ++ (activity was measured to be between 0.7 μM and 3.0 μM) | > 70% | + (activity was measured to be greater than or equal to 4.0 μM) | – | – | – | – | – | – |
| CC(=O)N[C@H]1CC2(CCN(C3CCOCC3)CC2)c2ccccc21 [compound 206] | 65 to 85% | +++ (activity was measured to be less than or equal to 0.7 μM) | < 55% | + (activity was measured to be greater than or equal to 4.0 μM) | – | – | – | – | – | – |
| c1ccc2c(c1)NCC21CCN(CC2CC3CCC2C3)CC1 (stereo not shown) [compound 110] | < 65% | +++ (activity was measured to be less than or equal to 0.7 μM) | < 55% | ++ (activity was measured to be between 0.1 μM and 4.0 μM) | – | – | – | – | – | – |
| CN(C)C(=O)N1CC2(CCN(C3CCN(c4cnccn4)CC3)CC2)c2ccccc21 [compound 464] | – | – | – | – | – | – | > 100% | +++ (activity was measured to be less than or equal to 2.0 μM) | > 100% | ++ (activity was measured to be between 2.0 μM and 5.0 μM) |
| COCCOC(=O)N1CC2(CCN(C3CC4CCC(C3)N4C(=O)OC3CCC3)CC2)c2cc(F)ccc21 (stereo not shown) [compound 195] | < 65% | ++ (activity was measured to be between 0.7 μM and 3.0 μM) | < 55% | + (activity was measured to be greater than or equal to 4.0 μM) | – | – | – | – | – | – |
| CCCCOC(=O)N1C2CCC1CC(N1CCC3(CC1)COc1ccc(F)cc13)C2 (stereo not shown) [compound 286] | < 65% | ++ (activity was measured to be between 0.7 μM and 3.0 μM) | < 55% | + (activity was measured to be greater than or equal to 4.0 μM) | – | – | – | – | – | – |
| CC(=O)N1CC2(CCN(C3CCN(C(=O)OCCF)CC3)CC2)c2cc(F)ccc21 [compound 172] | > 85% | + (activity was measured to be greater than or equal to 3.0 μM) | 55 to 70% | + (activity was measured to be greater than or equal to 4.0 μM) | – | – | – | – | – | – |
| Cc1ccc2c(c1)C1(CCN(CC3CCC4CCC3C4)CC1)CN2 (stereo not shown) [compound 241] | < 65% | ++ (activity was measured to be between 0.7 μM and 3.0 μM) | > 70% | + (activity was measured to be greater than or equal to 4.0 μM) | – | – | – | – | – | – |
| Fc1ccc2c(c1)C1(CCN([C@@H]3C[C@@H]4CC[C@H]3C4)CC1)CO2 [compound 175] | 65 to 85% | +++ (activity was measured to be less than or equal to 0.7 μM) | 55 to 70% | ++ (activity was measured to be between 0.1 μM and 4.0 μM) | – | – | – | – | – | – |
| CC(=O)N[C@H]1CC2(CCN(C3CCCCCC3)CC2)c2ccccc21 [compound 143] | 65 to 85% | +++ (activity was measured to be less than or equal to 0.7 μM) | > 70% | +++ (activity was measured to be less than or equal to 0.1 μM) | – | – | – | – | – | – |
| CCOC(=O)N1CCC(CN2CCC3(CC2)CN(C(C)=O)c2ccc(F)cc23)CC1 [compound 60] | 65 to 85% | ++ (activity was measured to be between 0.7 μM and 3.0 μM) | 55 to 70% | + (activity was measured to be greater than or equal to 4.0 μM) | – | – | – | – | – | – |
